Assay results: article PMC6389993, “Quercetin and its metabolite isorhamnetin promote glucose uptake through different signalling pathways in myotubes” (Scientific Reports, 2019)
Where two headings read alike, the source gives them in different places.

Key:
[1] = system: GLUT4; assay: GLUT4 translocation in L6 myotubes after siRNA knockdown of AMPKα, JAK2 or JAK3; assay type: cell-based, rat; details: for compound-induced GLUT4 translocation after siRNA for AMPK: siAMPKα 50 nM 48 h, 1 mM AICAR; for compound-induced GLUT4 translocation after siRNA for AMPK / compound-induced GLUT4 translocation after siRNA for JAK2: 1 nM quercetin or isorhamnetin; for compound-induced GLUT4 translocation after siRNA for JAK2: siJAK2 50 nM 48 h, 10 nM leptin
Method: (§1) For in vitro cell culture experiments, after serum starvation for 18 h, myotubes were treated with various concentrations of quercetin or isorhamnetin (0.1–10 nM) for 15 min; DMSO (final 0.1%) was used as a vehicle control. As positive controls, 100 nM insulin, 1 mM AICAR, 10 nM leptin, or 100 ng/mL IL-15 were used for insulin, AMPK, JAK2/STAT, or JAK3/STAT signalling pathways, respectively. Cells were treated with insulin or AICAR for 15 min, leptin for 60 min, or IL-15 for 24 h. Whole protein and plasma membrane fractions were prepared from myotubes, as previously described. For in vivo experiment, plasma membrane fraction and tissue lysate of soleus muscle were prepared.
(§2) Translocation of GLUT4 to the plasma membrane, as well as expression and phosphorylation levels of GLUT4-related regulators were estimated by western blot analysis. Briefly, equal amounts of proteins were separated by sodium dodecyl sulfate-polyacrylamide gel electrophoresis (SDS-PAGE). Separated proteins were transferred onto a polyvinylidene fluoride membrane and nonspecific binding sites were blocked using either Blocking One (to detect unphosphorylated proteins) or Blocking One-P (to detect phosphoproteins). The membrane was incubated overnight with an appropriate primary antibody for GLUT4 (1:5000), IR (1:10000), p-IRS1 (1:5000), IRS1 (1:5000), p-PI3K (1:5000), PI3K (1:10000), p-Akt (1:5000), Akt (1:10000), p-AMPKα (1:5000), AMPKα (1:10000), p-ACC (1:5000), ACC (1:10000), p-LKB1 (1:5000), LKB1 (1:10000), p-JAK2 (1:5000), JAK2 (1:5000), p-JAK3 (1:5000), JAK3 (1:10000), p-STAT1 (1:5000), STAT1 (1:10000), p-STAT3 (1:5000), STAT3 (1:10000), p-STAT5 (1:5000), STAT5 (1:10000), or β-actin (1:20000), and subsequently treated with the corresponding horseradish peroxidase-conjugated secondary antibody (1:50000) for 1 h. Specific immune complexes were developed using ImmunoStar® LD and detected with an ATTO Light-Capture II Western Blotting Detection System. Individual band density was calculated by ImageJ and normalized to the control.
Mature myotubes were cultured in antibiotic-free medium and transfected with siRNA at a final concentration of 50 nM using Lipofectamine RNAiMAX transfection reagent according to the manufacturer’s instructions. In brief, mature myotubes were transfected with siRNA in Opti-MEM for 48 h. Subsequently, the medium was changed to fresh Opti-MEM and cells were treated with the indicated concentrations of quercetin or isorhamnetin.

[2] = system: GLUT4; assay: GLUT4 translocation to the plasma membrane in L6 myotubes (western blot); assay type: cell-based, rat; details: for GLUT4 translocation to the plasma membrane / expression level of GLUT4: 15 min; for expression level of GLUT4: 0.1–10 nM
Method: In vitro cultured cell experiments were conducted according to a previously described protocol[6],[14]. Briefly, L6 myoblasts derived from rat skeletal muscle and of less than 40 passages were maintained in MEM supplemented with 10% foetal bovine serum (FBS) and antibiotics (100 U/ml penicillin and 100 μg/ml streptomycin) at 37 °C under a humidified atmosphere condition of 5% CO2 and 95% air. In each experiment, cells (2.2 × 10^4 cells/ml) were seeded into 96-well plates or 60-mm dishes for induction of differentiation into mature myotubes. After reaching confluence, cells were supplemented with differentiation medium containing 2% FBS and the same antibiotics for 7 days. Cells were used for each experiment after morphological analysis of differentiation status using phase-contrast microscopy. To explore the contribution of CaMKKβ or intracellular-free calcium ions in quercetin- and isorhamnetin-stimulated GLUT4 translocation, L6 cells were incubated in the presence or absence of 10 μM STO-609 and 25 μM […], respectively, for 30 min prior to treatment with either quercetin or isorhamnetin.
as §1, §2

[3] = Plasma concentrations of quercetin and isorhamnetin in mice after oral EMIQ (HPLC); assay type: in vivo; details: male, ICR, mouse, HPLC without deconjugation, read-out: Concentration in plasma, Aglycone form
Method: All animal experiments were performed according to the guidelines for animal experiments at Kobe University Animal Experimentation Regulation and approved by the Institutional Animal Care and Use Committed of Kobe University (Permission 29-05-02). Male ICR mice (5 weeks old, n = 20) were obtained from Japan SLC (Shizuoka, Japan) and maintained at constant temperature (23 ± 2 °C) with a 12 h light-dark cycle (lights on at 8:00 am). Mice were subsequently randomly divided into four groups of five each, and acclimatized for 1 week with free access to tap water and a laboratory-purified diet (3.850 kcal/g diet) consisting of 76% carbohydrate, 15% protein and 9% fat) (Research Diets, Tokyo, Japan). For analysis of concentrations of quercetin and isorhamnetin in the plasma and GLUT4 translocation in the muscle, mice were orally administrated EMIQ at 10, 100, or 1000 mg/kg body weight, or water as a vehicle control after 18 h fasting. The mice were sacrificed 90 min after the administration under anesthesia using sodium pentobarbital and seroflurane, and euthanized by exsanguination from cardiac puncture. Plasma and soleus muscle were collected, and kept at -80 °C until use.
To determine the levels of quercetin and isorhamnetin after administration of EMIQ, the obtained plasma were analyzed using HPLC (UV 370 nm) with or without deconjugation treatment using glucuronidase/sulfatase[16]. Briefly, an aliquot of 250 μl of plasma was mixed with 50 μl of 20% (w/v) ascorbic acid and incubated with 125 μl of 75 mM potassium phosphate buffer (pH 6.8) with or without 500 U/sample β-glucronidase and 125 μl of 200 mM sodium acetate buffer (pH 5.0) with or without 10 U/sample sulfatase for 2 h at 37 °C after adding 2 μl of 1 mM nobiletin as an internal standard. To separate quercetin and isorhamnetin, mixture was applied on a Sep-Pak C18 1 cc Vac Cartridge and eluted with 2 ml 95% (v/v) methanol. After eluate was dried by evaporation, dried material was dissolved in 50 μl of 50% (v/v) methanol and applied to HPLC. HPLC was performed using a SHIMADZU LabSolutions system (SHIMADZU, Kyoto, Japan) with SPD-M20A diode array detector. HPLC separation was done with a gradient system using 0.02% aqueous phosphoric acid as mobile phase A and acetonitrile as mobile phase B with a Cadenza CL-C18 column (φ 4.6 mm × 250 mm, Kyoto, Japan) at a flow rate of 1.0 ml/min. The gradient program was 0–13 min, 20% B, 13–33 min, 50–80% B, 33–43 min, 100% B, 43–60 min, 20% B.

COc1cc(-c2oc3cc(O)cc(O)c3c(=O)c2O)ccc1O [isorhamnetin, 3′-O-methyl quercetin]
compound-induced GLUT4 translocation after siRNA for AMPK [1]: failed to suppress
compound-induced GLUT4 translocation after siRNA for JAK2 [1]: abolished
compound-induced GLUT4 translocation after siRNA for JAK3 ([1]; siJAK3 50 nM 48 h, 1 nM isorhamnetin, not significant): slightly decreased
GLUT4 translocation to the plasma membrane ([2]; 1 nM): significantly increased GLUT4 translocation
GLUT4 translocation to the plasma membrane ([2]; 10 nM): significantly increased GLUT4 translocation
expression level of GLUT4 [2]: remained unchanged
concentration at 90 min ([3]; in vivo, 90 min after oral EMIQ 1000 mg/kg body weight): 131 ± 51.5 nM

O=c1c(O)c(-c2ccc(O)c(O)c2)oc2cc(O)cc(O)c12 [quercetin, 3,3′,4′,5,7-pentahydroxy flavone]
compound-induced GLUT4 translocation after siRNA for AMPK [1]: almost completely abolished
compound-induced GLUT4 translocation after siRNA for JAK2 [1]: without affecting
GLUT4 translocation to the plasma membrane ([2]; 0.1 nM): significantly increased GLUT4 translocation
GLUT4 translocation to the plasma membrane ([2]; 1 nM): significantly increased GLUT4 translocation
time-dependent changes in GLUT4 translocation ([2]; 1 nM, monitored 0–240 min): bell-shaped curve
GLUT4 translocation to the plasma membrane ([2]; 10 nM): significantly increased GLUT4 translocation
expression level of GLUT4 [2]: remained unchanged
concentration at 90 min ([3]; plasma, oral, 90 min after oral EMIQ 10 mg/kg body weight): 4.95 ± 0.82 nM
concentration at 90 min ([3]; plasma, oral, 90 min after oral EMIQ 100 mg/kg body weight): 6.8 ± 2 nM
concentration at 90 min ([3]; plasma, oral, 90 min after oral EMIQ 1000 mg/kg body weight): 138 ± 45.1 nM
